Data set [1] has as its target T1, P. stipitis XR (xylose reductase, XYL1) (Scheffersomyces stipitis, UniProt P31867).
T1 construct: native full-length XYL1 from plasmid pY7, chromosomally integrated in S. cerevisiae TMB 3044 (gre3 deleted); crude cell extract
Briefly: NAD(P)H absorbance at […] nm, initial rates fitted to compulsory-order ternary-complex equation. In kind it is biochemical. Conditions: crude extract, xylose co-substrate varied, pH 7.0 triethanolamine, 30°C; kinetic dissociation constant; read-out: KiA.

Data set [2] deals with T2, P. stipitis XR (xylose reductase, XYL1) (Scheffersomyces stipitis, UniProt P31867, K270R).
T2 construct: native full-length XYL1 from plasmid pY7, chromosomally integrated in S. cerevisiae TMB 3044 (gre3 deleted); crude cell extract
The data set is described as above. In kind it is biochemical. Conditions: crude extract, xylose co-substrate varied, pH 7.0 triethanolamine, 30°C; kinetic dissociation constant; read-out: KiA.

Data set [3] has as its target T3, P. stipitis XR (xylose reductase, XYL1) (Scheffersomyces stipitis, UniProt P31867, K270M).
T3 construct: native full-length XYL1 from plasmid pY7, chromosomally integrated in S. cerevisiae TMB 3044 (gre3 deleted); crude cell extract
The description is as above. Format: biochemical. Conditions: crude extract, xylose co-substrate varied, pH 7.0 triethanolamine, 30°C; kinetic dissociation constant; read-out: KiA.

Substrate in data set [4]: NC(=O)C1=CN([C@@H]2O[C@H](COP(=O)(O)OP(=O)(O)OC[C@H]3O[C@@H](n4cnc5c(N)ncnc54)[C@H](O)[C@@H]3O)[C@@H](O)[C@H]2O)C=CC1
Briefly: cells, lysate or membranes. Conditions: crude extract, xylose co-substrate varied, pH 7.0 triethanolamine, 30°C, varied: cofactor. In kind it is biochemical, Scheffersomyces stipitis.

Substrate in data set [5]: NC(=O)C1=CN([C@@H]2O[C@H](COP(=O)(O)OP(=O)(O)OC[C@H]3O[C@@H](n4cnc5c(N)ncnc54)[C@H](OP(=O)(O)O)[C@@H]3O)[C@@H](O)[C@H]2O)C=CC1
Briefly: cells, lysate or membranes. Format: biochemical, Scheffersomyces stipitis. As to conditions: crude extract, xylose co-substrate varied, pH 7.0 triethanolamine, 30°C, varied: cofactor.

One may read the Km as the substrate concentration at which the rate is half of its maximum.

For `NC(=O)C1=CN([C@@H]2O[C@H](COP(=O)(O)OP(=O)(O)OC[C@H]3O[C@@H](n4cnc5c(N)ncnc54)[C@H](OP(=O)(O)O)[C@@H]3O)[C@@H](O)[C@H]2O)C=CC1` [NADPH], the Kd in data set [1] came to 1.4 ± 1.2 µM; in data set [2], 22.9 ± 17.6 µM; in data set [3], 293 ± 169 µM.

`NC(=O)C1=CN([C@@H]2O[C@H](COP(=O)(O)OP(=O)(O)OC[C@H]3O[C@@H](n4cnc5c(N)ncnc54)[C@H](O)[C@@H]3O)[C@@H](O)[C@H]2O)C=CC1` [NADH]: the Kd in data set [1] came to 25.9 ± 11.7 µM; in data set [2], 57.4 ± 34.9 µM.

B1: P. stipitis XR (xylose reductase, XYL1) (Scheffersomyces stipitis CBS 6054) (protein)
chain: MPSIKLNSGYDMPAVGFGCWKVDVDTCSEQIYRAIKTGYRLFDGAEDYANEKLVGAGVKKAIDEGIVKREDLFLTSKLWNNYHHPDNVEKALNRTLSDLQVDYVDLFLIHFPVTFKFVPLEEKYPPGFYCGKGDNFDYEDVPILETWKALEKLVKAGKIRSIGVSNFPGALLLDLLRGATIKPSVLQVEHHPYLQQPRLIEFAQSRGIAVTAYSSFGPQSFVELNQGRALNTSPLFENETIKAIAAKHGKSPAQVLLRWSSQRGIAIIPKSNTVPRLLENKDVNSFDLDEQDFADIAKLDINLRFNDPWDWDKIPIFV
notes: native full-length XYL1 from plasmid pY7, chromosomally integrated in S. cerevisiae TMB 3044 (gre3 deleted); crude cell extract
As for B1, the Km was 28.7 ± 5.4 µM in data set [4] and 1.0 ± 0.6 µM in data set [5].

B2: P. stipitis XR (xylose reductase, XYL1) (Scheffersomyces stipitis CBS 6054; K270R) (protein)
chain: MPSIKLNSGYDMPAVGFGCWKVDVDTCSEQIYRAIKTGYRLFDGAEDYANEKLVGAGVKKAIDEGIVKREDLFLTSKLWNNYHHPDNVEKALNRTLSDLQVDYVDLFLIHFPVTFKFVPLEEKYPPGFYCGKGDNFDYEDVPILETWKALEKLVKAGKIRSIGVSNFPGALLLDLLRGATIKPSVLQVEHHPYLQQPRLIEFAQSRGIAVTAYSSFGPQSFVELNQGRALNTSPLFENETIKAIAAKHGKSPAQVLLRWSSQRGIAIIPRSNTVPRLLENKDVNSFDLDEQDFADIAKLDINLRFNDPWDWDKIPIFV
notes: as for B1
On to B2, for which the Km worked out at 62.8 ± 18.7 µM in data set [4] and 25.8 ± 9.1 µM in data set [5].

B3: P. stipitis XR (xylose reductase, XYL1) (Scheffersomyces stipitis CBS 6054; K270M) (protein)
chain: MPSIKLNSGYDMPAVGFGCWKVDVDTCSEQIYRAIKTGYRLFDGAEDYANEKLVGAGVKKAIDEGIVKREDLFLTSKLWNNYHHPDNVEKALNRTLSDLQVDYVDLFLIHFPVTFKFVPLEEKYPPGFYCGKGDNFDYEDVPILETWKALEKLVKAGKIRSIGVSNFPGALLLDLLRGATIKPSVLQVEHHPYLQQPRLIEFAQSRGIAVTAYSSFGPQSFVELNQGRALNTSPLFENETIKAIAAKHGKSPAQVLLRWSSQRGIAIIPMSNTVPRLLENKDVNSFDLDEQDFADIAKLDINLRFNDPWDWDKIPIFV
notes: as for B1
In the case of B3, the Km in data set [5] was 290 ± 78.6 µM.

Source of the values: publication PMC2688486, “Xylose reductase from Pichia stipitis with altered coenzyme preference improves ethanolic xylose fermentation by recombinant Saccharomyces cerevisiae” (Biotechnology for Biofuels, 2009).
